Measurements: ChEMBL document CHEMBL1201862, “PubChem BioAssay data set” (2004)
Activity calls are given as the source filed them.

How the values were obtained:
[1] = system: Plasmodium falciparum; assay: Primary qHTS for delayed death inhibitors of the malarial parasite plastid, 96 hour incubation. [Related pubchem assays (depositor defined):AID488745, AID488752, AID488774, AID504848, AID504850]; format: functional; settings: read-out: Potency
[2] = system: Plasmodium falciparum; assay: Primary qHTS for delayed death inhibitors of the malarial parasite plastid, 48 hour incubation. [Related pubchem assays (depositor defined):AID488752, AID488774, AID504848, AID504850]; format: functional; settings: read-out: Potency
[3] = system: BJ; assay: cytotoxicity toward BJ-TERT fibroblasts, dose response, cell-based, RAS-independent, luminescence (AID 1933); format: functional; settings: Homo sapiens
[4] = system: BJ; assay: cells; format: functional, cell-based; settings: Homo sapiens
[5] = system: BJ; assay: cytotoxicity toward BJ-TERT-LT-ST fibroblasts, dose response, cell-based, RAS-independent, luminescence (AID 1935); format: functional; settings: Homo sapiens;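 also: BJ fibroblasts immortalized with TERT plus LT and ST oncogenes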
[6] = cytotoxicity toward DRD oncogenic fibroblasts, dose response, cell-based, non-viral oncogenic, luminescence (AID 1934); format: functional; settings: Homo sapiens
[7] = system: HeLa; assay: HeLa cell cytotoxicity, dose response, cytotoxicity control, 24 h, cherry-picked samples (AID 504726); format: functional, cell-based; settings: Homo sapiens;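 also: potency for cytotoxicity as loss of luminescence signal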
[8] = biological target: T1, ORF 73 (Human herpesvirus 8, UniProt O40947); assay: inhibitors of C-LANA binding to LBS DNA, dose response, biochemical, fluorescence polarization, cherry-picked samples (AID 504725); parameters: species or system Human gammaherpesvirus 8;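 also: fluorescence polarization of a labeled DNA duplex reporting LANA DNA binding; potency is for inhibitors that block LANA binding to the DNA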
T1 sequence (O40947 whole entry): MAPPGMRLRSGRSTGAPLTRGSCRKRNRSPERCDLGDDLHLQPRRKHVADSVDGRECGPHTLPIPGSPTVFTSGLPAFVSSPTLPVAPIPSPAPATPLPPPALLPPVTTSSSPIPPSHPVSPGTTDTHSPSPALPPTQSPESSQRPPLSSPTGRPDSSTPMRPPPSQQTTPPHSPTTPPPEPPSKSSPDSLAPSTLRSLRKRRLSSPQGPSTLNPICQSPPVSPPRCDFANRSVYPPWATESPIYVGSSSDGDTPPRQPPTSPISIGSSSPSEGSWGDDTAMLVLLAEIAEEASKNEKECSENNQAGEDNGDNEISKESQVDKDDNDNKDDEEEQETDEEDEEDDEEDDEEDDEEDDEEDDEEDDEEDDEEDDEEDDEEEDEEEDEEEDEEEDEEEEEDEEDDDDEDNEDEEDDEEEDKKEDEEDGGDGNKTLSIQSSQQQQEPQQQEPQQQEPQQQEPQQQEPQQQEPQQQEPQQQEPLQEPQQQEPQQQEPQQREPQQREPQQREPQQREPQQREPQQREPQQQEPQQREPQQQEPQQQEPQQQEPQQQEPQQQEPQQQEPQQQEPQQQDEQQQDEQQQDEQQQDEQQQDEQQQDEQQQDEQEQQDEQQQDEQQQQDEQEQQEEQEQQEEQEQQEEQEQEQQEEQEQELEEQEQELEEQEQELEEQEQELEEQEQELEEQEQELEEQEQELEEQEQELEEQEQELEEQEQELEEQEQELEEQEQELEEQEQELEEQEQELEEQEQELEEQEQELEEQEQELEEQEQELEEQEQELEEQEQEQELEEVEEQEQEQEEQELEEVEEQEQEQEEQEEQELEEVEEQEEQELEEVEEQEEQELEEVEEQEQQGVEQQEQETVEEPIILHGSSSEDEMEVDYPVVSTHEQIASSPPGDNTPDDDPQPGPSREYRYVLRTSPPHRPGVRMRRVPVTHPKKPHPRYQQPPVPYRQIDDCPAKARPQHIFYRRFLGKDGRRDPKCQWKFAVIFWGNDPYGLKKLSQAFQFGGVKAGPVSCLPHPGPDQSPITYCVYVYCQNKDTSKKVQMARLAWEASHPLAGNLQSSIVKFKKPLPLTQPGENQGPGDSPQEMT

[9] = biological target: T2, Replicative DNA helicase DnaB (Mycobacterium tuberculosis, UniProt P9WMR3); assay: DnaB intein splicing inhibitors, dose response, biochemical, cell-free fluorescence (AID 449749); format: functional
T2 sequence (P9WMR3 whole entry): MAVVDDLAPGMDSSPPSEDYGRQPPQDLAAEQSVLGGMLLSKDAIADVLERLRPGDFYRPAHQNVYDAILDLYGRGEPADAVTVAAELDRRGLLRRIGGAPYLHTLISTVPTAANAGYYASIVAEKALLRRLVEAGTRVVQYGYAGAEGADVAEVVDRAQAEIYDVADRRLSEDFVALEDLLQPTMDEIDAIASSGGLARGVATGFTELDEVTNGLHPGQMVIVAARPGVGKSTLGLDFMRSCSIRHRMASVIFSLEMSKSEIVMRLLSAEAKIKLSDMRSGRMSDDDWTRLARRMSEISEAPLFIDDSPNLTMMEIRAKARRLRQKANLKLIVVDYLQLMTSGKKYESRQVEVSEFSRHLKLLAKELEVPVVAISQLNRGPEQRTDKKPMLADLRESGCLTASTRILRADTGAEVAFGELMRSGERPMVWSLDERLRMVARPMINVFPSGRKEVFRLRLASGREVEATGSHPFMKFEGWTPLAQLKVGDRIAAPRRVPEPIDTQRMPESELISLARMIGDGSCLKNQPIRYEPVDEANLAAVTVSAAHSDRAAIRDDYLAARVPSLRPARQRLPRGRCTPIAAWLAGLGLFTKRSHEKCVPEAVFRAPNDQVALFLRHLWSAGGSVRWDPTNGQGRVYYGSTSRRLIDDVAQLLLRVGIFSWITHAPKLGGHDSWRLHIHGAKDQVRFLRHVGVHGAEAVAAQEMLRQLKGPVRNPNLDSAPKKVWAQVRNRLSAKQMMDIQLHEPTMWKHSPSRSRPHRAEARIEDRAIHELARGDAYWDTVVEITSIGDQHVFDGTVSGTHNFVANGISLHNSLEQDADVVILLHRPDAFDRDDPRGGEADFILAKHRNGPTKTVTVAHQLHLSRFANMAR

[10] = biological target: Keap1/Nrf2 (Homo sapiens, UniProt Q14145); assay: Keap1-Nrf2 protein-protein interaction inhibitors, dose response, biochemical, fluorescence polarization, cherry-picked samples (AID 588683)
Sequence of Keap1/Nrf2 (Q16236 whole entry): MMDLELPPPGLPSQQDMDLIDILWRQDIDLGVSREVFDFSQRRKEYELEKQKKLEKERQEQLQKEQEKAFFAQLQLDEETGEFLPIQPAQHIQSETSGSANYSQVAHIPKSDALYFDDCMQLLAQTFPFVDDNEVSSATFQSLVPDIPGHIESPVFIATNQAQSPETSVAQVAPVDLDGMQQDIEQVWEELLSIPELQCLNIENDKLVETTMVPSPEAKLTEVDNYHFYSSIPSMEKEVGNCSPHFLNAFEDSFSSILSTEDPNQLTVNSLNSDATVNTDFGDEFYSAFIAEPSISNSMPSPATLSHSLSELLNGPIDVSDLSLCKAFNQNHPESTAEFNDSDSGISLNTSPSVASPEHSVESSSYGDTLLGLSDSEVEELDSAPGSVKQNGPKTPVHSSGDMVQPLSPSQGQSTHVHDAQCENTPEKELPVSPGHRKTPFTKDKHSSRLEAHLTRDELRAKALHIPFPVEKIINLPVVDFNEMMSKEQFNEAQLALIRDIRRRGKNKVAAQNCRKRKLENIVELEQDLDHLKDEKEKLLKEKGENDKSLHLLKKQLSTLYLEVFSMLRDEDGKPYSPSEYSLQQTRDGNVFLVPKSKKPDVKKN
Sequence of Keap1/Nrf2 (Q14145 whole entry): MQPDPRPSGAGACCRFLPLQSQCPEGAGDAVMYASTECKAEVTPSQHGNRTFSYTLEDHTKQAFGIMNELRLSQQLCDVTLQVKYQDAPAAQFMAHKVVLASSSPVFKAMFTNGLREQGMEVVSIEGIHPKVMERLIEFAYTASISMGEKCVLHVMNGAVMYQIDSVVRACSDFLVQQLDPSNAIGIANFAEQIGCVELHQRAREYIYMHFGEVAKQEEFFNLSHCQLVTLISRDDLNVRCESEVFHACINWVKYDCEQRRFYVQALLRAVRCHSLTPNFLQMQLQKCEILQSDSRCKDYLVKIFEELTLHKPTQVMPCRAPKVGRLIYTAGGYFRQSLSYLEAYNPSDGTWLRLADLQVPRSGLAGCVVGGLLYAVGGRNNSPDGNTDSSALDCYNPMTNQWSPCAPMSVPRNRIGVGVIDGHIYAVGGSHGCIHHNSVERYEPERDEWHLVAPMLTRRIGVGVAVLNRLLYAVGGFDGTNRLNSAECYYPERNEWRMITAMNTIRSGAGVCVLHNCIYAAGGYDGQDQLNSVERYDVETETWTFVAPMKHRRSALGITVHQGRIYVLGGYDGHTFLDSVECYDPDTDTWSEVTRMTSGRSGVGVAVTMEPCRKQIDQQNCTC

[11] = biological target: T3, Protein RecA (Mycobacterium tuberculosis, UniProt P9WHJ3); assay: Fluorescence Cell-Free Homogeneous Dose Retest to Identify Inhibitors of RecA-Intein Splicing Activity. [Related pubchem assays (depositor defined):AID2097, AID2223, AID489010, AID492950]; format: functional
T3 sequence (P9WHJ3 whole entry): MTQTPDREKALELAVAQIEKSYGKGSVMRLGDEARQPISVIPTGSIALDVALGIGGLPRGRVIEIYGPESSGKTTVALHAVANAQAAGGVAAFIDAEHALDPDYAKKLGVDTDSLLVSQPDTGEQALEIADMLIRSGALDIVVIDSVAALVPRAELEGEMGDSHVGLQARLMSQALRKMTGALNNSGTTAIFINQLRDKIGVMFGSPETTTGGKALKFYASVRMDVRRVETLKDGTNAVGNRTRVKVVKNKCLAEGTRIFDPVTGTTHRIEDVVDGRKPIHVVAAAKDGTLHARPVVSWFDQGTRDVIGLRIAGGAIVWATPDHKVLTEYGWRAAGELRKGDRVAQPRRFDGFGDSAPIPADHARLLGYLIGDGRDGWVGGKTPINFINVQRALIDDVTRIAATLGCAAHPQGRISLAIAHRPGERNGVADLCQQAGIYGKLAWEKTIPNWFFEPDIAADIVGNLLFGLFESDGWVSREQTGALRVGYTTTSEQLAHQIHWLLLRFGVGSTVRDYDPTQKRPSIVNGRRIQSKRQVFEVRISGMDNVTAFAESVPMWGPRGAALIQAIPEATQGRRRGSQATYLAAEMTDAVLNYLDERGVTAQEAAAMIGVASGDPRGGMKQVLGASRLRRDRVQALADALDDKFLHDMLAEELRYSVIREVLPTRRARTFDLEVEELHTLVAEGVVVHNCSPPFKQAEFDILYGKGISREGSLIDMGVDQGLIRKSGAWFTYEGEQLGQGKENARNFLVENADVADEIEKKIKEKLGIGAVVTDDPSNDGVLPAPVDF

[12] = system: INS1; assay: beta cell apoptosis inhibitors, cytokine rescue, dose response, luminescence, retest (AID 449756); format: functional, cell-based; settings: Rattus norvegicus;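 also: cell death triggered by IL-1 beta plus TNF-alpha plus IFN-gamma mixture; protective hits raise ATP signal compared with cytokine alone wells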
[13] = biological target: Protein S100-A4 (Homo sapiens, UniProt P26447); assay: S100A4-myosin IIA binding inhibitor potency, dose response, biochemical, fluorescence polarization, cherry-picked hits (AID 687001); format: functional
Sequence of Protein S100-A4 (P26447 whole entry): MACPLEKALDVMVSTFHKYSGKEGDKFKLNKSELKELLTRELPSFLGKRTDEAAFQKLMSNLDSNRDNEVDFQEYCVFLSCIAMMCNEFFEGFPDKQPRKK

[14] = biological target: Peroxisome proliferator-activated receptor gamma/Nuclear receptor coactivator 2 (Homo sapiens, UniProt P37231); format: functional;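 also: agonist potency for raising coactivator recruitment to the receptor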
[15] = biological target: Peroxisome proliferator-activated receptor gamma/Nuclear receptor coactivator 1 (Homo sapiens, UniProt P37231); format: functional;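 also: agonist potency as compounds enhance coactivator SRC-1 recruitment to PPARgamma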
[16] = biological target: Peroxisome proliferator-activated receptor gamma/Nuclear receptor coactivator 3 (Homo sapiens, UniProt P37231); format: functional;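 also: agonist potency for raising coactivator recruitment to the receptor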
Sequence of Peroxisome proliferator-activated receptor gamma/Nuclear receptor coactivator 3 (P37231 whole entry): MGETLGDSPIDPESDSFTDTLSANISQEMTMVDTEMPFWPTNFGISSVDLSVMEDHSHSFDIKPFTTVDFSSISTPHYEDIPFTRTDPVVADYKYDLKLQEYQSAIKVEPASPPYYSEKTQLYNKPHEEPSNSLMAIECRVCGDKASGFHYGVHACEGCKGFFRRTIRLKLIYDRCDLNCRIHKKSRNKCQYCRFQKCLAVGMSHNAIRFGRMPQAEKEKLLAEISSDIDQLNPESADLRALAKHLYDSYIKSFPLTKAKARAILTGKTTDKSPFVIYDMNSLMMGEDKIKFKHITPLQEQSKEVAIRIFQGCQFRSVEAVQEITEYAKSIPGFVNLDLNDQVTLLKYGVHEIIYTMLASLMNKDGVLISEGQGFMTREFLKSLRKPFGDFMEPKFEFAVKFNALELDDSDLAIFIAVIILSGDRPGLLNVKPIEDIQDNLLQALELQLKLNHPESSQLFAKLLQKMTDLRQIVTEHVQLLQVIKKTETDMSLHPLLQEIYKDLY
Sequence of Peroxisome proliferator-activated receptor gamma/Nuclear receptor coactivator 3 (Q9Y6Q9 whole entry, further chain): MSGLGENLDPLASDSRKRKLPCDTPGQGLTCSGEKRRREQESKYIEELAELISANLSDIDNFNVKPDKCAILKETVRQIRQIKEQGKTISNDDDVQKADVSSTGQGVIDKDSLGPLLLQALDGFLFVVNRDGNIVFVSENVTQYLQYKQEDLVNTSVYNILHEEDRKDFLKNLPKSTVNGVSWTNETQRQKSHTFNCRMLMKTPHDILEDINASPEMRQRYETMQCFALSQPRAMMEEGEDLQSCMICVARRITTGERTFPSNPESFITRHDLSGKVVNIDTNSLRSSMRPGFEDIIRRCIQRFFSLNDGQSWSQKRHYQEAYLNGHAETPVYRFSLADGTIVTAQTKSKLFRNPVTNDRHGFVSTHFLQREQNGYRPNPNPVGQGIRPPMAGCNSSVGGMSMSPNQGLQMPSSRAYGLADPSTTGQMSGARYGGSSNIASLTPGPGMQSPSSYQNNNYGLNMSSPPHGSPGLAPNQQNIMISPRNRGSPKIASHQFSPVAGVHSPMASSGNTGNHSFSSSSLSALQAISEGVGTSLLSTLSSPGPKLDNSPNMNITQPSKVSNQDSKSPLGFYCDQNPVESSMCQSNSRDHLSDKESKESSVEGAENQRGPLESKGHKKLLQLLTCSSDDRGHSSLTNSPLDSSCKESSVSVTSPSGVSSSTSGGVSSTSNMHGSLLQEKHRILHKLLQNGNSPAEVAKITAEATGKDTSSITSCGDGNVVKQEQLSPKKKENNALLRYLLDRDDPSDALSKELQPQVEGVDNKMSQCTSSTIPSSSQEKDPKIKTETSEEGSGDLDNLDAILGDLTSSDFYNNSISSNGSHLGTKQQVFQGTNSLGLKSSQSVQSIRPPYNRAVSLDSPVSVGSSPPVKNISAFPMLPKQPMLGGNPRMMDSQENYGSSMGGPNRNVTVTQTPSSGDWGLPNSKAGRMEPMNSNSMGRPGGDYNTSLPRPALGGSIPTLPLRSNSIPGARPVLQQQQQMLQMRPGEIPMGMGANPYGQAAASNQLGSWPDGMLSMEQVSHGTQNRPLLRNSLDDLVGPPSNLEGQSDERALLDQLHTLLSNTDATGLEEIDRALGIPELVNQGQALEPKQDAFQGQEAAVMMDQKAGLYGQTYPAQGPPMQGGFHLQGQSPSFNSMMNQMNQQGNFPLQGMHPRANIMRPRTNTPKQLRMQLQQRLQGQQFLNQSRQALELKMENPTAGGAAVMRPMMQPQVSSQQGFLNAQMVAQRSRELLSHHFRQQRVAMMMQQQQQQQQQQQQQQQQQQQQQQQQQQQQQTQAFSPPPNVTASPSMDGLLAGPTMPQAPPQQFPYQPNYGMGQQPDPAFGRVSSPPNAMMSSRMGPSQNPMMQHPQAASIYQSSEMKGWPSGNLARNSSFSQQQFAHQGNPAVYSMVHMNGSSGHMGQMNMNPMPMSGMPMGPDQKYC

[17] = biological target: Beta-2 adrenergic receptor (Homo sapiens, UniProt P07550); assay: beta2AR agonists driving receptor internalization, dose response, cell-based, FAP fluorogen, flow cytometry, cherry pick 1 (AID 588763); format: functional
Sequence of Beta-2 adrenergic receptor (P07550 whole entry): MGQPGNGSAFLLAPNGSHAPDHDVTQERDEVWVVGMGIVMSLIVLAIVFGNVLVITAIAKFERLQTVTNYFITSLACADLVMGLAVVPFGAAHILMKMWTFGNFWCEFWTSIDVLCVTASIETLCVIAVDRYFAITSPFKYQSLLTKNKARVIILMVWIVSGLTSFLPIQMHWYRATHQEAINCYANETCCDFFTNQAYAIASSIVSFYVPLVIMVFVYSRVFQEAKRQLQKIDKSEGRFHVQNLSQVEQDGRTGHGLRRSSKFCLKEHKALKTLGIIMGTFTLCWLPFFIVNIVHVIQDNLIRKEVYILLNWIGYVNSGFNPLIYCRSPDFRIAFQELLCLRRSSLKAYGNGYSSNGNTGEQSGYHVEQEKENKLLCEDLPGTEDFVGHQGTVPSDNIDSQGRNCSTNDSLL

Question: With `CN(C)C1(CNC(=O)c2ccc(Cl)c(S(N)(=O)=O)c2)CCCCC1` as the molecule, how does the AC50 [1] read?
Answer: Its AC50 is 20.8 µM (inactive).

Question: And the AC50 [2]?
Answer: Its AC50 is 9.29 µM (inactive).

Question: Which EC50 [3] does the source give for `CN1CCN(c2ccc([N+](=O)[O-])c3no[n+]([O-])c23)CC1` here?
Answer: Its EC50 is 0.793 µM (active).

Question: What about the EC50 [4] of the same molecule?
Answer: The EC50 was 2.37 µM (inconclusive).

Question: And the EC50 [5]?
Answer: The EC50 was 1.13 µM (inconclusive).

Question: And the EC50 [6]?
Answer: Its EC50 is 5.89 µM (active).

Question: What about the AC50 [7] of the same molecule?
Answer: The AC50 was 2.57 µM (active).

Question: And the AC50 [8]?
Answer: The AC50 was 12.6 µM (active).

Question: And the AC50 [9]?
Answer: The AC50 was > 380 µM (inactive).

Question: And the AC50 [10]?
Answer: Its AC50 is > 52 µM (inactive).

Question: And the EC50 [11]?
Answer: Its EC50 is > 380 µM (inactive).

Question: And the AC50 [12]?
Answer: Its AC50 is 1.83 µM (active).

Question: What about the AC50 [13] of the same molecule?
Answer: Its AC50 is 3.3 µM (active).

Question: Which results are given for `Cc1cc(C)n(-c2nc(SCC(=O)Nc3nccs3)c3c4c(sc3n2)COC(C)(C)C4)n1`?
Answer: EC50 [14]: > 79.4 µM (not active); EC50 [15]: > 79.4 µM (not active); EC50 [16]: > 79.4 µM (not active); EC50 [17]: 8.85 µM (inactive)
